The values below come from publication PMC9505538, “P-Glycoprotein (MDR1/ABCB1) Restricts Brain Accumulation of the Novel EGFR Inhibitor EAI045 and Oral Elacridar Coadministration Enhances Its Brain Accumulation and Oral Exposure” (Pharmaceuticals, 2022).

The target in the series is T1, human ABCG2 (Homo sapiens, UniProt Q9UNQ0).
T1 construct: expressed in transfected cells; host or cells: MDCK-II cells, stably transduced, generated in the authors' institute
T1 sequence (Q9UNQ0 1-655): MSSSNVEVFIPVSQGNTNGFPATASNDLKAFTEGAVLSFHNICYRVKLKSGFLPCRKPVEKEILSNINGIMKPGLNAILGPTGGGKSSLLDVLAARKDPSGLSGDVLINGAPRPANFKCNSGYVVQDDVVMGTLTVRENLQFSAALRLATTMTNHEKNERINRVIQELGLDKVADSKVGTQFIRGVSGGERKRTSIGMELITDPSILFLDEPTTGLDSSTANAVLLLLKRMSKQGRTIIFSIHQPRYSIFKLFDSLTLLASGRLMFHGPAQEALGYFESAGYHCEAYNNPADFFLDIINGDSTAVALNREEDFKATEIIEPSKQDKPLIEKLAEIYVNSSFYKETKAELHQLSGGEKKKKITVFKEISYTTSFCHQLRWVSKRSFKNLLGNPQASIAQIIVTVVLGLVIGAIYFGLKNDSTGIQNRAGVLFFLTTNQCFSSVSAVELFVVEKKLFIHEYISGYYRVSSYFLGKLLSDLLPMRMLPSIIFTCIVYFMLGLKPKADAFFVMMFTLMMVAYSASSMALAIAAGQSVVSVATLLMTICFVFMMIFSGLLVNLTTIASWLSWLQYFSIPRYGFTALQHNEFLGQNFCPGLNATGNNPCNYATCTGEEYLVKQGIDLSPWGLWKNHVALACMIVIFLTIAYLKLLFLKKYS
As to the kind of experiment: Transepithelial transport of EAI045, MDCK-II cells transduced with human ABCG2. Type of series: in vitro ADME. Particulars: for efflux ratio r (relative transport ratio): EAI045 5 μM. How it is done: Transport of EAI045 (5 μM) across epithelia was tested using cell layers of Madin–Darby Canine Kidney (MDCK-II) cells and derived clones expressing hABCB1, hABCG2, or mAbcg2 cDNA. […] In cells overexpressing hABCB1, there was clear transport of EAI045 in the apical direction (r = 5.5, Figure 1C). […] To evaluate the interaction between hABCG2 and mAbcg2 and EAI045, zosuquidar (5 μM) was added to inhibit any endogenous canine ABCB1. In cells overexpressing hABCG2, the BA transport of EAI045 was somewhat increased relative to the AB transport, resulting in an efflux ratio of 1.4 (Figure 1E).
Figure 1 In vitro transepithelial transport of EAI045 (5 μM) using MCDK-II parental cells (A,B) or transduced with human ABCB1 (C,D), human ABCG2 (E,F), or murine Abcg2 (G,H) cDNA. At t = 0 EAI045 was added in the donor compartment (either apical or basolateral). At 1, 2, and 4 h EAI045 was quantified in the acceptor compartment and the cumulative total transported amount per well was plotted (n = 3). Zosuquidar (5 μM) was added to inhibit the human and/or the endogenous ABCB1, while Ko143 (5 μM) was added to inhibit the human or murine ABCG2. r, relative transport ratio. […] Points, mean; bars, SD. TEXT PRINTED IN THE PICTURE: (A) no label printed: Parental: r = 1.7 | (B) no label printed: Parental + Zos.: r = 1.1 | (C) no label printed: hABCB1: r = 5.5 | (D) no label printed: hABCB1 + Zos.: r = 1.3 | (E) no label printed: hABCG2 + Zos.: r = 1.4 | (F) no label printed: hABCG2 + Zos. + Ko143: r = 1.1 | (G) no label printed: mAbcg2 + Zos.: r = 1.8 | (H) no label printed: mAbcg2 + Zos. + Ko143: r = 1.4
Madin–Darby Canine Kidney (MDCK-II) cells (ECACC 00062107) stably transduced with human (h) ABCB1, hABCG2, or mouse (m) Abcg2 cDNA were generated in our institute between 1998 and 2005. […] In short, cells were allowed to grow an intact monolayer in 3 days, which was monitored with transepithelial electrical resistance (TEER) measurements, both before and after the transport phase. […] Proper functionality of these cell lines was monitored by continual testing with a variety of drug substrates.

For the molecule `O=C(Nc1nccs1)C(c1cc(F)ccc1O)N1Cc2ccccc2C1=O` (stereo not drawn) [EAI045], the “efflux ratio r (relative transport ratio)” value is 1.4 (hABCG2 + zosuquidar 5 μM) and 1.1 (hABCG2 + zosuquidar 5 μM + Ko143 5 μM). Further, the “transport by human ABCG2” value (in vitro) was “at best slightly transported”.
